Measurements published in patent US20110020448A1, “PHARMACEUTICAL COMPOSITION FOR THE TREATMENT AND PREVENTION OF GLAUCOMA” (MAZENCE, INC., priority 2007, published 2011).

Experiments:
[1] = tested on: retinal ganglion cells; assay: Viability of retinal ganglion cells (RGCs) in TTT laser optic nerve injury (glaucoma) model; type: in vivo, C57BL/6 mice; settings: TTT laser model mice, rodent chow containing 50 mg/kg, fed 2 weeks; RGCs labeled day 13, counted 24 h later; FIG. 1
Protocol: (§1) Group 3: Experimental group (n=7) fed with a rodent chow containing 50 mg/kg of a pharmaceutical composition including compound 1 of experimental example 1 as an active ingredient, as a glaucoma model.
(§2) 8-week-old C57BL/6 mice were anesthetized with an intraperitoneal injection of a mixture of ketamine (100 mg/kg) and xylazine (5 mg/kg), and a mydriatic agent was applied to dilate the pupils of the eyes. Thereafter, an application of transpupillary thermotherapy (TTT), 200 spot size, 50-mW power, and 30-sec duration, was performed over the optic disc of an eye. The aiming beam of the laser was focused on the centre of the optic disc, a viscoelastic material was instilled, a cover glass was placed, and laser beams were irradiated while confirming the optic disc through the dilated pupils by naked eyes. The thus-established optic nerve injury model will be hereinafter referred to as a TTT laser model. […]
Twenty-four hours after labeling, the animals were euthanized and the eyes were enucleated and fixed for 2 hours with neutral formalin. […] Under a fluorescence microscope (×400), the fluorescently labeled retinal ganglion cells were counted in 12 regions in the four quadrants of each retina approximately 0.5 mm, 1 mm and 1.5 mm from the edge of the optic disc. […]

[2] = tested on: axons of the optic nerve; assay: Axonal viability (Bodian staining) in TTT laser optic nerve injury (glaucoma) model; type: in vivo, C57BL/6 mice; settings: TTT laser model mice, rodent chow containing 50 mg/kg; day 14 after laser irradiation; FIG. 2
Protocol: as §1, §2
The retinal cross-section and the optic nerve cross-section were treated with a silver solution for 48 hours, and color development was carried out using a reducing agent, followed by toning and fixation. […] In order to evaluate the axonal viability, the stained axons were counted with a light microscope (×1000), in 20 regions at intervals of 10 in the four quadrants of each retina, from the center of the optic nerve tissue section slide. […]

CC1(C)CCC2=C(O1)c1ccccc1C(=O)C2=O [Compound 1, β-lapachone]
density of retinal ganglion cells relative to the TTT control group (Group 2) [1]: ≥ 1.7 fold | axonal density relative to the TTT control group (Group 2) [2]: ≥ 1.5 fold
